Experimental data from US7371766B2, “Curcumin analogs with anti-tumor and anti-angiogenic properties” (Emory University, priority 1999, dated 2008).

What was measured:
Assay in all cases: cells
[1] = tested on: MDA-MB-231; settings: Homo sapiens, MDA-MB-231, 48 h; for GI50: read-out: Median Growth Inhibitory Concentration (GI50); for CC50: read-out: Median Lethal Concentration (LC50)
[2] = tested on: COLO 205; settings: Homo sapiens, COLO 205, 48 h; for GI50: read-out: Median Growth Inhibitory Concentration (GI50); for CC50: read-out: Median Lethal Concentration (LC50)
[3] = tested on: NCI-H460; settings: Homo sapiens, NCI-H460, 48 h; for GI50: read-out: Median Growth Inhibitory Concentration (GI50); for CC50: read-out: Median Lethal Concentration (LC50)
[4] = tested on: TK-10; settings: Homo sapiens, TK-10, 48 h; for GI50: read-out: Median Growth Inhibitory Concentration (GI50); for CC50: read-out: Median Lethal Concentration (LC50)
[5] = tested on: UACC-62; settings: Homo sapiens, UACC-62, 48 h; for GI50: read-out: Median Growth Inhibitory Concentration (GI50); for CC50: read-out: Median Lethal Concentration (LC50)
[6] = tested on: K-562; settings: Homo sapiens, K562, 48 h; for GI50: read-out: Median Growth Inhibitory Concentration (GI50); for CC50: read-out: Median Lethal Concentration (LC50)
[7] = tested on: U251; settings: Homo sapiens, U-251, 48 h; for GI50: read-out: Median Growth Inhibitory Concentration (GI50); for CC50: read-out: Median Lethal Concentration (LC50)
[8] = tested on: NCI-H522; settings: Homo sapiens, NCI-H522, 48 h; for GI50: read-out: Median Growth Inhibitory Concentration (GI50); for CC50: read-out: Median Lethal Concentration (LC50)
[9] = tested on: HCT-15; settings: Homo sapiens, HCT-15, 48 h; for GI50: read-out: Median Growth Inhibitory Concentration (GI50); for CC50: read-out: Median Lethal Concentration (LC50)
[10] = tested on: HT29; settings: Homo sapiens, HT-29, 48 h; for GI50: read-out: Median Growth Inhibitory Concentration (GI50); for CC50: read-out: Median Lethal Concentration (LC50)
[11] = tested on: CAKI-1; settings: Homo sapiens, CAKI-1, 48 h; for GI50: read-out: Median Growth Inhibitory Concentration (GI50); for CC50: read-out: Median Lethal Concentration (LC50)
[12] = tested on: BT-549; settings: Homo sapiens, BT-549, 48 h; for GI50: read-out: Median Growth Inhibitory Concentration (GI50); for CC50: read-out: Median Lethal Concentration (LC50)
[13] = tested on: A498; settings: Homo sapiens, A498, 48 h; for GI50: read-out: Median Growth Inhibitory Concentration (GI50); for CC50: read-out: Median Lethal Concentration (LC50)
[14] = tested on: M14; settings: Homo sapiens, M14, 48 h; for GI50: read-out: Median Growth Inhibitory Concentration (GI50); for CC50: read-out: Median Lethal Concentration (LC50)
[15] = tested on: HOP-62; settings: Homo sapiens, HOP-62, 48 h; for GI50: read-out: Median Growth Inhibitory Concentration (GI50); for CC50: read-out: Median Lethal Concentration (LC50)
[16] = tested on: SW-620; settings: Homo sapiens, SW-620, 48 h; for GI50: read-out: Median Growth Inhibitory Concentration (GI50); for CC50: read-out: Median Lethal Concentration (LC50)
[17] = tested on: HCT-116; settings: Homo sapiens, HCT-116, 48 h; for GI50: read-out: Median Growth Inhibitory Concentration (GI50); for CC50: read-out: Median Lethal Concentration (LC50)
[18] = tested on: HS 578T; settings: Homo sapiens, 48 h; for GI50: read-out: Median Growth Inhibitory Concentration (GI50); for CC50: read-out: Median Lethal Concentration (LC50)
[19] = tested on: A549; settings: Homo sapiens, A549, 48 h; for GI50: read-out: Median Growth Inhibitory Concentration (GI50); for CC50: read-out: Median Lethal Concentration (LC50)
[20] = tested on: NCI/ADR-RES; settings: Homo sapiens, 48 h; for GI50: read-out: Median Growth Inhibitory Concentration (GI50); for CC50: read-out: Median Lethal Concentration (LC50)
[21] = tested on: CCRF-CEM; settings: Homo sapiens, 48 h; for GI50: read-out: Median Growth Inhibitory Concentration (GI50); for CC50: read-out: Median Lethal Concentration (LC50)
[22] = tested on: HL-60 (TB); settings: Homo sapiens, HL-60, 48 h; for GI50: read-out: Median Growth Inhibitory Concentration (GI50); for CC50: read-out: Median Lethal Concentration (LC50)
[23] = tested on: MOLT-4; settings: Homo sapiens, MOLT-4, 48 h; for GI50: read-out: Median Growth Inhibitory Concentration (GI50); for CC50: read-out: Median Lethal Concentration (LC50)
[24] = tested on: EKVX; settings: Homo sapiens, 48 h; for GI50: read-out: Median Growth Inhibitory Concentration (GI50); for CC50: read-out: Median Lethal Concentration (LC50)
[25] = tested on: RXF 393; settings: Homo sapiens, RXF 393, 48 h; for GI50: read-out: Median Growth Inhibitory Concentration (GI50); for CC50: read-out: Median Lethal Concentration (LC50)
[26] = tested on: LOX IMVI; settings: Homo sapiens, 48 h; for GI50: read-out: Median Growth Inhibitory Concentration (GI50); for CC50: read-out: Median Lethal Concentration (LC50)
[27] = tested on: SK-MEL-5; settings: Homo sapiens, SK-MEL-5, 48 h; for GI50: read-out: Median Growth Inhibitory Concentration (GI50); for CC50: read-out: Median Lethal Concentration (LC50)
[28] = tested on: OVCAR-4; settings: Homo sapiens, OVCAR-4, 48 h; for GI50: read-out: Median Growth Inhibitory Concentration (GI50); for CC50: read-out: Median Lethal Concentration (LC50)
[29] = tested on: MCF-7; settings: Homo sapiens, MCF7, 48 h; for GI50: read-out: Median Growth Inhibitory Concentration (GI50); for CC50: read-out: Median Lethal Concentration (LC50)
[30] = tested on: ACHN; settings: Homo sapiens, 48 h; for GI50: read-out: Median Growth Inhibitory Concentration (GI50); for CC50: read-out: Median Lethal Concentration (LC50)

O=C(C=Cc1ccc(F)cc1F)C=Cc1ccc(F)cc1F [EF9, 1,5-Bis(2,4-difluorophenyl)penta-1,4-dien-3-one]
GI50 [1]: 14.1 µM | CC50 [1]: 57.7 µM | GI50 [2]: 7.6 µM | CC50 [2]: 52.8 µM | GI50 [3]: 12.7 µM | CC50 [3]: 60.9 µM | GI50 [4]: 17.9 µM | CC50 [4]: 56.5 µM | GI50 [5]: 13.9 µM | CC50 [5]: 52.8 µM | GI50 [6]: 3.5 µM | CC50 [6]: > 100 µM | GI50 [7]: 2100 nM | CC50 [7]: 12.9 µM | GI50 [8]: 13.4 µM | CC50 [8]: 57.1 µM | GI50 [9]: 4.9 µM | CC50 [9]: 64.7 µM | GI50 [10]: 4.1 µM | CC50 [10]: 41.9 µM | GI50 [11]: 15 µM | CC50 [11]: 93.4 µM | GI50 [12]: 6.5 µM | CC50 [12]: 47.3 µM | GI50 [13]: 2400 nM | CC50 [13]: 23 µM | GI50 [14]: 4.1 µM | CC50 [14]: 48.6 µM | GI50 [15]: 16.6 µM | CC50 [15]: 60.7 µM | GI50 [16]: 3.2 µM | CC50 [16]: 62.6 µM | GI50 [17]: 1900 nM | CC50 [17]: 7.7 µM | GI50 [18]: 9.9 µM | CC50 [18]: > 100 µM | GI50 [19]: 8.9 µM | CC50 [19]: 71 µM | GI50 [20]: 30.7 µM | CC50 [20]: > 100 µM | GI50 [21]: 3.1 µM | CC50 [21]: > 100 µM | GI50 [22]: 4.2 µM | CC50 [22]: > 100 µM | GI50 [23]: 9300 nM | CC50 [23]: > 100 µM | GI50 [24]: 11.8 µM | CC50 [24]: 49.1 µM | GI50 [25]: 2300 nM | CC50 [25]: 17.9 µM | GI50 [26]: 3.4 µM | CC50 [26]: 67.6 µM | GI50 [27]: 12.1 µM | CC50 [27]: 53.1 µM | GI50 [28]: 15.2 µM | CC50 [28]: 61.6 µM | GI50 [29]: 3000 nM | CC50 [29]: 42.2 µM | GI50 [30]: 16.5 µM | CC50 [30]: 54.8 µM

OC(CCc1ccc(F)cc1F)CCc1ccc(F)cc1F [EF19, 1,5-Bis(2,4-difluorophenyl)-pentan-3-ol]
GI50 [1]: 22.4 µM | CC50 [1]: 66.3 µM | GI50 [2]: 17.5 µM | CC50 [2]: 55.9 µM | GI50 [3]: 17.9 µM | CC50 [3]: 57.5 µM | GI50 [4]: 17.4 µM | CC50 [4]: 56.3 µM | GI50 [5]: 15.1 µM | CC50 [5]: 53.2 µM | GI50 [6]: 19 µM | CC50 [6]: 90.1 µM | GI50 [7]: 17400 nM | CC50 [7]: 55.8 µM | GI50 [8]: 18.2 µM | CC50 [8]: 75.4 µM | GI50 [9]: 24.8 µM | CC50 [9]: > 100 µM | GI50 [10]: 17.9 µM | CC50 [10]: 62.6 µM | GI50 [11]: 21.8 µM | CC50 [11]: 67.8 µM | GI50 [12]: 17.9 µM | CC50 [12]: 64.7 µM | GI50 [13]: 16300 nM | CC50 [13]: 54.7 µM | GI50 [14]: 18.3 µM | CC50 [14]: 68.7 µM | GI50 [15]: 18 µM | CC50 [15]: 58.7 µM | GI50 [16]: 17.7 µM | CC50 [16]: 63.7 µM | GI50 [17]: 17800 nM | CC50 [17]: 56.3 µM | GI50 [18]: 21.9 µM | CC50 [18]: > 100 µM | GI50 [19]: 18 µM | CC50 [19]: 65.8 µM | GI50 [20]: 25.3 µM | CC50 [20]: > 100 µM | GI50 [21]: 18.2 µM | CC50 [21]: 72.3 µM | GI50 [22]: 18.1 µM | CC50 [22]: 66.8 µM | GI50 [23]: 2600 nM | CC50 [23]: 75.6 µM | GI50 [24]: 17.5 µM | CC50 [24]: 57.7 µM | GI50 [25]: 18800 nM | CC50 [25]: 58.4 µM | GI50 [26]: 20 µM | CC50 [26]: 74.4 µM | GI50 [27]: 17.1 µM | CC50 [27]: 55.5 µM | GI50 [28]: 17.4 µM | CC50 [28]: 65.1 µM | GI50 [29]: 17700 nM | CC50 [29]: 57.1 µM | GI50 [30]: 17.8 µM | CC50 [30]: 56.3 µM

CC(=O)O.O=C1C(=Cc2ccccc2F)CNCC1=Cc1ccccc1F [EF24, 3,5-Bis-(2-fluorobenzylidene)-piperidin-4-one-acetate]
GI50 [1]: 1.3 µM | CC50 [1]: 9.1 µM | GI50 [2]: 0.8 µM | CC50 [2]: 8 µM | GI50 [3]: 81 µM | CC50 [3]: 50.1 µM | GI50 [4]: 3.1 µM | CC50 [4]: 27.8 µM | GI50 [5]: 1.6 µM | CC50 [5]: 4.5 µM | GI50 [6]: 0.3 µM | CC50 [6]: 75.4 µM | GI50 [7]: 200 nM | CC50 [7]: 0.8 µM | GI50 [8]: 0.9 µM | CC50 [8]: 22.9 µM | GI50 [9]: 0.2 µM | CC50 [9]: 13.6 µM | GI50 [10]: 0.3 µM | CC50 [10]: 57.3 µM | GI50 [11]: 0.8 µM | CC50 [11]: 27.2 µM | GI50 [12]: 0.7 µM | CC50 [12]: 4.7 µM | GI50 [13]: 900 nM | CC50 [13]: 3.4 µM | GI50 [14]: 1.2 µM | CC50 [14]: 27.7 µM | GI50 [15]: 0.7 µM | GI50 [16]: 0.2 µM | CC50 [16]: 4.4 µM | GI50 [17]: 200 nM | CC50 [17]: 1.8 µM | GI50 [18]: 1 µM | CC50 [18]: 81.4 µM | GI50 [19]: 1.9 µM | CC50 [19]: 89.4 µM | GI50 [20]: 0.9 µM | CC50 [20]: 60.6 µM | GI50 [21]: 0.2 µM | GI50 [22]: 0.4 µM | CC50 [22]: > 100 µM | GI50 [23]: 500 nM | CC50 [23]: 66.2 µM | GI50 [24]: 0.9 µM | CC50 [24]: 9.4 µM | GI50 [25]: 600 nM | CC50 [25]: 3.6 µM | GI50 [26]: 0.2 µM | GI50 [27]: 1.3 µM | GI50 [28]: 0.7 µM | CC50 [28]: 17.2 µM | GI50 [29]: 200 nM | CC50 [29]: 5 µM | GI50 [30]: 1.1 µM | CC50 [30]: 5.6 µM
